We go through two compounds from patent US6365619B1, “Treatment of arteriosclerosis” (Novartis AG, priority 1999, dated 2002).

Data set [1] has as its system neointimal formation in a mouse model of carotid artery transplantation. Put plainly: Murine carotid artery loop transplantation: neointimal formation (transplant-associated arteriosclerosis). It is filed as in vivo. To be noted: mean±SD. The source says: The effect of compound 369 (VLA-4 antagonist) and compound 741 (VCAM-1 inhibitor) on the development of transplant-associated arteriosclerosis as measured by neointimal formation in a mouse model of carotid artery transplantation is investigated as mono-, combined, and tolerance induction therapy. Grafts are harvested at 30 days post-transplantation.
A murine model of accelerated transplant arteriosclerosis is used. Carotid arteries are allografted from B10.A (2R) to B10.BR mice, a commercially available strain combination that consistently results in neointimal formation 30 days after transplantation. The procedure is performed on anesthetized mice under a surgical dissecting microscope. A midline incision is made on the ventral side of neck from the suprasternal notch to the chin. The left carotid artery is gently dissected from the bifurcation in the distal end toward the proximal end as far as is technically possible. The artery is then occluded with two microvascular clamps, one at each end, and two longitudinal arteriotomies (0.5 to 0.6 mm) are made with a fine needle and scissors. In the donor mouse both the left and right carotid arteries are fully dissected from the arch to the bifurcation. The graft is then transplanted paratopically into the recipient in an end-to-side anastamosis with 11/0 continuous suture, and the skin incision is closed with a 5/0 interrupted suture. […] Vascular grafts are harvested 30 days after transplantation, a point at which a fully developed, nearly occlusive neointima is formed.
Compound 369: In the monotherapy experiments, compound 369 is administered three times per day subcutaneously (s.c.) for a total daily dose of 90 mg/kg/day.
Compound 741: Compound 741 is administered continuously via alzet pump in a dose of 5.0, 1.0, and 0.5 mg/kg/day, respectively.
Anti VLA-4 Mab: The anti VLA-4 antibody is administered 100 μg/mouse/d i.p.
A fixed dose of compound 369 is given as a total daily dose of 60 mg/kg/day s.c. and compound 741 is administered continuously via alzet pump at a dose of 5.0, 1.0, and 0.5 mg/kg/day, respectively.
Compound 369 (60 mg/kg/d) and compound 741 (5 mg/kg/d) are given simultaneously for the first 10 days only.
In all cases, allografts are harvested at day 30. […]
Morphometrical analysis is performed on VerHoeff stained paraffin sections using a computer-assisted image analysis system. The areas of the neointima are measured by computerized planimetry of sections obtained approximately 150, 300, and 450 μm from the center of the graft.
Data from morphometric analyses are reported as the neointima area on cross-section determined by subtracting the new lumen area measurement from the internal elastic lamina (IEL) area measurement for each animal. […]

Data set [2] in a line: Dissolution of compound 741 in dosing vehicle. It is filed as physicochemical. The conditions noted are these: 1:1 mixture of CsA placebo solution (Cremphor, ethanol) and propylene glycol. The method, then: Compound 741 is dissolved in a 1:1 mixture of CsA placebo solution (each mL contains 650 mg of Cremphor and 32.9% ethanol) and propylene glycol. Compound 741 is very soluble in this mixture and the final solution is clear.

Consider `COCCCN(CC(=O)N[C@@H](CC(=O)O)c1ccc(OC)c(OC)c1)C(=O)Cc1ccc(NC(=O)Nc2ccccc2C)cc1` [Cmpd.369, (S)-β-[3-Methoxypropyl)[[4-[(2-methylphenylaminocarbonylamino)-phenyl]acetyl]amino]acetylamino-3,4-dimethoxy-benzenepropanoic Acid], for which, in data set [1] (monotherapy compound 369 90 mg/kg/d s.c. (three times per day), allograft harvested day 30), the “neointima area on cross-section” value is given as 19,874 μm^2.

As to `CCCCC(C)CC1NC(=O)C(Cc2cn(OC)c3ccccc23)N(C)C(=O)C(CC(C)C)NC(=O)C(CC(C)C)N(C)C(=O)C(CC(C)CCCC)NC(=O)C(CCC(=O)OCCC)OC(=O)C(C)N(C)C1=O` (centres unmarked) [Cmpd.741], the “neointima area on cross-section” value is given as 30,926 μm^2 in data set [1] (monotherapy Cmpd.741 0.5 mg/kg/d continuously via alzet pump, allograft harvested day 30); 32,249 μm^2 in data set [1] (monotherapy Cmpd.741 1 mg/kg/d continuously via alzet pump, allograft harvested day 30); 18,804 μm^2 in data set [1] (monotherapy Cmpd.741 5 mg/kg/d continuously via alzet pump, B10.A (2R) to B10.BR allograft harvested day 30). In data set [2], the solubility entry is on record as “very soluble”.
